# Where two headings read alike, the source gives them in different places. Non-standard residues stand in square brackets, D forms with d. Residues, ends and D or L forms follow the SMILES beside them. Dmt = Cc1cc(O)cc(C)c1C[C@H](N)C(=O)O; Tic = O=C(O)[C@@H]1Cc2ccccc2CN1; βAla = NCCC(=O)O; Sar = CNCC(=O)O
# Legend:
# 6TM/E11 = 6TM/E11 (Mus musculus, UniProt P42866); assay: Competition binding versus 125I-IBNtxA at the 6TM-containing
# mMOR-1 = mMOR-1 (Mus musculus, UniProt P42866); assay: Competition binding versus 125I-IBNtxA in mMOR-CHO membranes
# MOR-1 variants (Oprm1) [1] = conditions: mouse, in vivo; cited from earlier work
# mKOR-1 = mKOR-1 (Mus musculus, UniProt P33534); assay: Competition binding versus 125I-IBNtxA in mKOR-CHO membranes
# mDOR-1 = mDOR-1 (Mus musculus, UniProt P32300); assay: Competition binding versus 125I-IBNtxA in mDOR-CHO membranes
# [2] = molecular target: 125I-IDAPP binding sites in C57/Bl6 brain homogenates (Mus musculus, UniProt P42866)
# [3] = test system: C57Bl/6 wild type (WT) and exon 11 KO (E11 KO) mice; assay: Radiant heat tail flick analgesia in wild type and exon 11 KO mice; format: in vivo, mouse; conditions: for analgesic ED50: tail flick
# MOR-1 variants (Oprm1) [4] = format: in vivo, mouse; conditions: knockout and/or antisense models; Figs. 2,3,4
# mDOR = mDOR (Mus musculus, UniProt P32300); assay: 35S-GTPγS binding in mDOR-CHO membranes; conditions: read-out: Max stimulation (% over basal)
# [5] = test system: brain membranes (WT, E11 KO, E1/E11 KO); assay: 35S-GTPγS binding in brain membranes
# mMOR = mMOR (Mus musculus, UniProt P42866); assay: 35S-GTPγS binding in mMOR-CHO membranes; conditions: read-out: Max stimulation (% over basal)
# [6] = molecular target: spinal cord membranes (WT, E11 KO) (Mus musculus, UniProt P42866); assay: 35S-GTPγS binding in spinal cord membranes
# CD-1 mice = assay: Cross tolerance in morphine pelleted mice, tail flick analgesia; format: in vivo, mouse; conditions: for analgesic ED50: i.c.v., 72 hr
# mKOR = mKOR (Mus musculus, UniProt P33534); assay: 35S-GTPγS binding in mKOR-CHO membranes; conditions: read-out: Max stimulation (% over basal)
# MOR-1 = MOR-1 (Mus musculus, UniProt P42866); assay: Competition of 3H-DAMGO binding in CHO cells expressing MOR-1
# [7] = molecular target: 3H-DAMGO binding sites in C57 brain tissue (Mus musculus, UniProt P42866)
# [8] = test system: C57Bl/6 wild type (WT) and exon 11 KO (E11 KO) mice; conditions: cited from earlier work
# [9] = test system: E1/E11 KO and E11 KO mice; conditions: cited from earlier work
# [10] = E11 KO mice, supraspinal (i.c.v.; IDAPP also i.t.)
# [11] = 0.1 nM 125I-IDAPP, C57/Bl6 brain homogenates, no blockers
molecule,measurement,setting,value
"C[C@@H](NC(=O)[C@@H](N)Cc1ccc(O)cc1)C(=O)N[C@@H](Cc1ccccc1)C(=O)NCC(=O)N[C@@H](Cc1ccc(O)cc1)C(=O)N1CCC[C@H]1C(=O)N[C@@H](CO)C(N)=O [Dermorphin, Tyr-D-Ala-Phe-Gly-Tyr-Pro-Ser-NH2]",Ki,6TM/E11,> 500 nM
same,Ki,mMOR-1,4 ± 0.5 nM
Cc1cccc([C@H](C)c2cnc[nH]2)c1C [Dexmedetomidine],MOR-1 Variants required for analgesia,MOR-1 variants (Oprm1) [1],6TM
"C[C@@H](NC(=O)[C@@H](N)Cc1ccc(O)cc1)C(=O)N[C@@H](Cc1ccccc1)C(=O)N[C@@H](Cc1ccccc1)C(N)=O [TAPP, Tyr-D-Ala-Phe-Phe-NH2] (H-Y[dA]FF-NH2)",Ki,mKOR-1,> 500 nM
same,Ki,mDOR-1,3 ± 0.1 nM
same,Ki,6TM/E11,130 ± 16 nM
same,Ki,mMOR-1,3 ± 0.2 nM
"C[C@@H](NC(=O)[C@@H](N)Cc1ccc(O)cc1)C(=O)N[C@@H](Cc1ccccc1)C(=O)NCCC(N)=O [TAPA, Tyr-D-Ala-Phe-βAla-NH2] (H-Y[dA]F[βAla]-NH2)",Ki,mKOR-1,> 500 nM
same,Ki,mDOR-1,48 ± 1 nM
same,Ki,6TM/E11,40 ± 7 nM
same,Ki,mMOR-1,11 ± 0.3 nM
"CC[C@H](C)[C@H](NC(=O)[C@H](Cc1ccccc1)NC(=O)[C@H](Cc1ccccc1)NC(=O)[C@@H](C)NC(=O)[C@@H](N)Cc1c(C)cc(O)cc1C)C(N)=O [DAPPI, Dmt-D-Ala-Phe-Phe-Ile-NH2] (H-[Dmt][dA]FFI-NH2)",Ki,mKOR-1,7 ± 0.4 nM
same,Ki,mDOR-1,0.3 ± 0.2 nM
same,Ki,mMOR-1,0.3 ± 0.1 nM
"NC(=O)[C@H](Cc1ccccc1)NC(=O)[C@H](Cc1c[nH]c2ccccc12)NC(=O)[C@@H]1CCCN1C(=O)[C@@H](N)Cc1ccc(O)cc1 [Endomorphin 1, Tyr-Pro-Trp-Phe-NH2]",Hill Slope,[2],−0.7 ± 0.1
same,analgesic activity in E11 KO mice,[3]; [10],eliminated the analgesic response
same,analgesic ED50,"[3]; WT C57Bl/6 mice, i.c.v.",3.39 µg
same,MOR-1 Variants required for analgesia,MOR-1 variants (Oprm1) [4],7TM + 6TM
same,Emax,mDOR,-3 ± 1%
same,Max stimulation (% over basal),[5]; E1/E11 KO,−5 ± 3 % over basal
same,EC50,[5]; E11 KO,17 ± 7 nM
same,Max stimulation (% over basal),[5]; E11 KO,23 ± 1 % over basal
same,EC50,[5]; WT,222 ± 31 nM
same,Max stimulation (% over basal),[5]; WT,39 ± 2 % over basal
DPDPE,MOR-1 Variants required for analgesia,MOR-1 variants (Oprm1) [1],7TM + 6TM
"C[C@@H](NC(=O)[C@@H](N)Cc1ccc(O)cc1)C(=O)NCC(=O)N(C)[C@@H](Cc1ccccc1)C(=O)NCCO [DAMGO, [D-Ala^2,N-MePhe^4,Gly(ol)^5]-enkephalin]",Hill Slope,[2]; [11],−0.9 ± 0.1
same,analgesic ED50,"[3]; E11 KO mice, i.c.v.",0.23 µg
same,analgesic ED50,"[3]; E11 KO mice, i.t.",0.27 µg
same,analgesic activity in E11 KO mice,"[3]; E11 KO mice, spinal (i.t.)",still elicited a full response
same,analgesic activity in E11 KO mice,[3]; [10],retained full analgesic activity
same,analgesic ED50,"[3]; WT C57Bl/6 mice, i.c.v.",0.13 µg
same,analgesic ED50,"[3]; WT C57Bl/6 mice, i.t.",0.02 µg
same,Emax,mMOR,396 ± 21%
same,Emax,"[6]; read-out: Max stimulation (% over basal), spinal cord, E11 KO",7 ± 4%
same,Emax,"[6]; read-out: Max stimulation (% over basal), spinal cord, WT",11 ± 2%
same,MOR-1 Variants required for analgesia,MOR-1 variants (Oprm1) [4],7TM
same,analgesic ED50,CD-1 mice; morphine pellet (75 mg free base) CD-1 mice,1.5 ± 0.47 µg
same,analgesia in morphine pelleted mice (cross tolerance),CD-1 mice; morphine pelleted versus placebo,cross tolerant with morphine
same,analgesic ED50,CD-1 mice; placebo pellet CD-1 mice,0.04 ± 0.02 µg
same,Emax,mDOR,-2 ± 7%
same,Max stimulation (% over basal),[5]; E1/E11 KO,−6 ± 1 % over basal
same,EC50,[5]; E11 KO,220 ± 13 nM
same,Max stimulation (% over basal),[5]; E11 KO,19 ± 6 % over basal
same,EC50,[5]; WT,190 ± 8 nM
same,Max stimulation (% over basal),[5]; WT,15 ± 2 % over basal
same,Emax,mKOR,-16 ± 8%
C=CCN1C[C@H](C)N([C@H](c2ccc(C(=O)N(CC)CC)cc2)c2cccc(OC)c2)C[C@H]1C [SNC80],Ki,[2],> 1000 nM
same,MOR-1 Variants required for analgesia,MOR-1 variants (Oprm1) [1],7TM + 6TM
C[C@H]1[C@H]2C(=O)c3ccc(O)cc3[C@@]1(C)CCN2CC1CC1 [Ketocyclazocine],MOR-1 Variants required for analgesia,MOR-1 variants (Oprm1) [1],6TM
"C[C@@H](O)[C@H](NC(=O)[C@H]1NC(=O)[C@H]([C@@H](C)O)NC(=O)[C@H](CCCN=C(N)N)NC(=O)[C@@H](Cc2c[nH]c3ccccc23)NC(=O)[C@H](Cc2ccc(O)cc2)NC(=O)[C@@H](NC(=O)[C@H](N)Cc2ccccc2)CSSC1(C)C)C(N)=O [CTAP, D-Phe-Cys-Tyr-D-Trp-Arg-Thr-Pen-Thr-NH2]",Ki,[2],1.1 ± 0.3 nM
same,IC50,MOR-1,4.8 ± 0.4 nM
same,IC50,[7],4.1 ± 0.2 nM
Oc1ccc2c3c1O[C@H]1c4[nH]c5c(c4C[C@@]4(O)[C@@H](C2)N(CC2CC2)CC[C@]314)C[C@@]1(O)[C@H]2Cc3ccc(O)c4c3[C@@]1(CCN2CC1CC1)[C@H]5O4 [NorBNI],Ki,[2]; [11],> 1000 nM
"C[C@@H](NC(=O)[C@@H](N)Cc1ccc(O)cc1)C(=O)N[C@@H](Cc1ccccc1)C(=O)N(C)CC(N)=O [TAPS, Tyr-D-Ala-Phe-Sar-NH2] (H-Y[dA]F[Sar]-NH2)",Ki,mKOR-1,> 500 nM
same,Ki,mDOR-1,35 ± 2 nM
same,Ki,6TM/E11,50 ± 8 nM
same,Ki,mMOR-1,6 ± 0.7 nM
CN1CC[C@]23c4c5ccc(O)c4O[C@H]2[C@@H](O[C@@H]2O[C@H](C(=O)O)[C@@H](O)[C@H](O)[C@H]2O)C=C[C@H]3[C@H]1C5 [M6G],Hill Slope,[2],−0.6 ± 0.1
same,Ki,[2],0.7 ± 0.3 nM
"N[C@@H](Cc1ccc(O)cc1)C(=O)N1Cc2ccccc2C[C@H]1C(=O)N[C@@H](Cc1ccccc1)C(=O)N[C@@H](Cc1ccccc1)C(=O)O [TIPP, Tyr-Tic-Phe-Phe-OH] (H-Y[Tic]FF-OH)",Ki,mKOR-1,> 500 nM
same,Ki,6TM/E11,163 ± 12 nM
same,Ki,mMOR-1,> 500 nM
Clc1cccc(Cl)c1N=C1NCCN1 [Clonidine],MOR-1 Variants required for analgesia,MOR-1 variants (Oprm1) [1],6TM
CN1CC[C@]23c4c5ccc(O)c4O[C@H]2[C@@H](O)C=C[C@H]3[C@H]1C5 [Morphine],analgesic activity in E11 KO mice,[8],maintaining full analgesic activity
COC(=O)[C@@H]1C[C@H](OC(C)=O)C(=O)[C@H]2[C@@]1(C)CC[C@H]1C(=O)O[C@H](c3ccoc3)C[C@]21C [Salvinorin A],MOR-1 Variants required for analgesia,MOR-1 variants (Oprm1) [1],6TM
"O=C(N[C@@H]1CC[C@@]2(O)[C@H]3Cc4ccc(O)c5c4[C@@]2(CCN3CC2CC2)[C@H]1O5)c1cccc(I)c1 [IBNtxA, 3-iodobenzoyl-6β-naltrexamide]",rescue of analgesia by mMOR-1G lentivirus in E1/E11 KO mice,[9],able to rescue
same,MOR-1 Variants required for analgesia,MOR-1 variants (Oprm1) [1],6TM
"CC(C)[C@H](NC(=O)[C@H](Cc1ccccc1)NC(=O)[C@H](Cc1ccccc1)NC(=O)[C@@H](C)NC(=O)[C@@H](N)Cc1ccc(O)cc1)C(N)=O [TAPPV, Tyr-D-Ala-Phe-Phe-Val-NH2] (H-Y[dA]FFV-NH2)",Ki,6TM/E11,> 500 nM
same,Ki,mMOR-1,> 500 nM
"NC(=O)[C@H](Cc1ccccc1)NC(=O)[C@H](Cc1ccccc1)NC(=O)[C@@H]1CCCN1C(=O)[C@@H](N)Cc1ccc(O)cc1 [Endomorphin 2, Tyr-Pro-Phe-Phe-NH2]",analgesic activity in E11 KO mice,[3]; [10],eliminated the analgesic response
same,analgesic ED50,"[3]; WT C57Bl/6 mice, i.c.v.",1.14 µg
same,MOR-1 Variants required for analgesia,MOR-1 variants (Oprm1) [4],7TM + 6TM
same,Emax,mDOR,-3 ± 2%
same,Max stimulation (% over basal),[5]; E1/E11 KO,1 ± 1 % over basal
same,EC50,[5]; E11 KO,103 ± 8 nM
same,Max stimulation (% over basal),[5]; E11 KO,24 ± 2 % over basal
same,EC50,[5]; WT,151 ± 43 nM
same,Max stimulation (% over basal),[5]; WT,35 ± 1 % over basal
Oc1ccc2c3c1O[C@H]1c4[nH]c5ccccc5c4C[C@@]4(O)[C@@H](C2)N(CC2CC2)CC[C@]314 [Naltrindole],Ki,[2]; [11],> 1000 nM
"CC[C@H](C)[C@H](NC(=O)[C@H](Cc1ccccc1)NC(=O)[C@H](Cc1ccccc1)NC(=O)[C@@H](C)NC(=O)[C@@H](N)Cc1ccc(O)cc1)C(N)=O [TAPPI, Tyr-D-Ala-Phe-Phe-Ile-NH2] (H-Y[dA]FFI-NH2)",Ki,mDOR-1,6 ± 0.1 nM
same,Ki,6TM/E11,100 ± 10 nM
same,Ki,mMOR-1,0.2 ± 0.2 nM
